According to US20030207830A1, “Mutant NDP kinases for antiviral nucleotide analog activation and therapeutic uses thereof” (priority 2002, published 2003):

What was measured:
[1] = biological target: T1, Dictyostelium NDP Kinase N119S (Dictyostelium discoideum, UniProt P22887, N119S); test: Pre-steady-state fluorescence stopped-flow phosphotransfer from nucleoside triphosphates, N119S Dd-NDPK; assay type: biochemical; conditions: for times faster reaction with the N119S enzyme than wild type: from Table I; for k2/Ks N119S (catalytic efficiency of phosphotransfer): pre-steady state, stopped-flow, average of three determinations
T1 construct: made in house
T1 sequence (P22887 whole entry N119S): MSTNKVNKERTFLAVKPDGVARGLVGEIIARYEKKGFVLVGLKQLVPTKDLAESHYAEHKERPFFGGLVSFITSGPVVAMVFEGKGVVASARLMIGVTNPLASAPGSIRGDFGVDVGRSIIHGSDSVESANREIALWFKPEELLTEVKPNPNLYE
Method: (§1) All numbers in italics have already been published (Schneider, 1998, 2000) The kinetic constants were measured at the pre-steady-state level using a fluorescence stopped-flow device. The binding constants were determined at equilibrium by recording the increase in fluorescence (Schneider, 2000). Values are the average of three independent determinations.
(§2) As the diphosphate form of analogs were not always available, the triphosphate analogs were used to study phosphate transfer in reaction as in Scheme I. Experiments were performed with an Hi-Tech DX2 microvolume stopped-flow reaction (Schneider, 1998) at Aexc=296 nm (for Ado derivatives) or […] (for other nucleotides), 2 mm excitation slit and a 320 nm cutoff filter at the emission. After mixing NDPK (1 μM) and NTP or an analogTP (10-500 μM), the intrinsic protein fluorescence was recorded for 10-200 sec. In each experiment, 400 pairs of data were recorded, and the data from 3-4 identical experiments were averaged and fitted to a number of non-linear analytical equations using the software provided by Hi-Tech. All curves fitted to single exponentials.
(§3) The data were analyzed using the reaction scheme: [drawing 1]
(§4) In both the forward and the reverse reactions, the product concentration remains very low, thus the product binding can be neglected, and the observed single step could be attributed to the phosphotransfer (Schneider, 1998). The rate of this observed single step is: [formula]
and reaches a limiting value (k+2) at NTP saturation. Saturation could not be obtained with the concentrations of any NTP used here. Therefore, catalytic efficiencies of phosphorylation (CEphos=k+2/(k−1/k+1)=k+2/KS) were measured, which are equivalent to second order constants and allow a reliable comparison of a variety of NDP kinase substrates.

[2] = biological target: T2, human NDP kinase A (NDPK-A, nm23-H1), wild type (Homo sapiens, UniProt P15531); test: Pre-steady-state phosphotransfer, fluorescence stopped-flow; assay type: biochemical; conditions: catalytic efficiency of phosphotransfer, NDPK-A, pre-steady state
T2 construct: made in house
T2 sequence (P15531 whole entry): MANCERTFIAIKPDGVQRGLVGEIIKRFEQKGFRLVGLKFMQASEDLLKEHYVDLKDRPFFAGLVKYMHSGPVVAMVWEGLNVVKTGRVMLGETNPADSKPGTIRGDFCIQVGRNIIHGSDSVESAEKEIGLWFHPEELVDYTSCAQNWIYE
Method: FIG. 3 depicts the catalytic efficiency of NDPK-A and mutants for nucleoside analogs. The rates of phosphorylation of pure recombinant NDP kinases (1 μM) were measured at the pre-steady state in a fluorescence stopped-flow with d4T-TP (10 to 80 μM). The catalytic efficiency (expressed in M^−1s^−1) was determined from the variation of the rate as a function of analog as shown in FIG. 2 (▾, NDPK-A, ♦ L55H, ● N115S, ▪ L55H-N115S).
The activity assays were performed at the pre-steady state level.
Wild type human NDPK-A and the mutants were expressed and purified according to Schneider et al., 2000, Mol Pharm. Recombinant wild type and mutant Dd-NDPK were obtained as described (Schneid, 1998a), except for N119Y NDP kinase which was partially purified by Q sepharose FF chromatography. Each protein was characterized by […] electrophoresis. The concentration of 17 kDa subunits of the enzyme was either determined by Bradford assay ([…]) or using an absorbance coefficient of ΔA^280=1.249 for a 1 mg/mL solution of human wild type and N115S NDPK-A, and =0.55 for wild type and mutant N119S, N119T Dd-NDP kinases, respectively.
as §2, with “Hi-Tech.” for “Hi-Tech. All curves fitted to single exponentials.”
as §3, §4
(§5) and reaches a limiting value (k+2) at NTP saturation. […] Therefore, catalytic efficiencies of phosphorylation (CEphos=k+2/(k−1/k+1)=k+2/KS) were measured, which are equivalent to second order constants and allow a reliable comparison of a variety of NDP kinase substrates.

[3] = biological target: T3, Inactive-N119S Dd-NDPK (EI-N119S) (Dictyostelium discoideum, UniProt P22887, F64W/H122G/N119S); test: Equilibrium fluorescence titration of nucleotide binding, inactive Dd-NDPK variant with N119S; conditions: relative affinity of NTP for both enzymes
T3 construct: made in house
T3 sequence (P22887 whole entry F64W/N119S/H122G): as the sequence (P22887 whole entry N119S) above, with F64W, H122G counted along it
Method: as §1
In contrast to what is observed with natural nucleotides, the Ser mutation specifically improves the catalytic efficiency with nucleotides analogs as shown in Table I; ddGTPs and AZT-TP react, respectively, 1.5 and 4 times faster with the N119S enzyme. […] Analog binding affinity was measured using a variant of Dd-NDPK (EI) as described (Schneider, 2000). This mutant (H122G-F64W) lacks the catalytic histidine, and a tryptophan replaces the phenylalanine stacking on the base in the active site (Schneider, 2000). The mutation N119S was inserted in EI in order to measure the nucleotide affinity by fluorescence titration. The Ser contribution to the binding was evaluated from the relative affinity of NTP for both enzymes (Table I).
for N119S, N119T and N119Y mutations, respectively. Altered bases as compared to the wild type sequence are underlined in bold. Sequences were checked by automatic sequencing. The mutant EI-N119S was obtained by mutation of the previously described F64W-H122G mutated NDP kinase (here called EI) (Schneider 2000).

[4] = biological target: T4, human NDP kinase A (NDPK-A) variant L55H (Homo sapiens, UniProt P15531, L55H); test: Pre-steady-state phosphotransfer, fluorescence stopped-flow; assay type: biochemical
T4 construct: made in house; host or cells: E. coli
T4 sequence (P15531 whole entry L55H): as the sequence (P15531 whole entry) above, with L55H counted along it

[5] = biological target: T5, Dictyostelium NDP Kinase wt (Dictyostelium discoideum, UniProt P22887); test: Pre-steady-state fluorescence stopped-flow phosphotransfer from nucleoside triphosphates, wild type Dd-NDPK; assay type: biochemical; conditions: average of three determinations
T5 construct: made in house
T5 sequence (P22887 whole entry): as the sequence (P22887 whole entry N119S) above, with S119N counted along it
Method: The binding constants were determined at equilibrium by recording the increase in fluorescence (Schneider, 2000).
After mixing NDPK (1 μM) and NTP or an analogTP (10-500 μM), the intrinsic protein fluorescence was recorded for 10-200 sec. In each experiment, 400 pairs of data were recorded, and the data from 3-4 identical experiments were averaged and fitted to a number of non-linear analytical equations using the software provided by Hi-Tech.
as §3
The rate of this observed single step is: [formula]
as §5

Compound	times faster reaction with the N119S enzyme than wild type [1] [times]	k2/Ks N119S (catalytic efficiency of phosphotransfer) [1] [M⁻¹ s⁻¹]	k2/Ks [2] [M⁻¹ s⁻¹]	factor by which Ser 119 reinforces affinity (EI-N119S versus EI) [3] [fold]	k2/Ks ([4]; catalytic efficiency of phosphotransfer, L55H, pre-steady state) [M⁻¹ s⁻¹]	Specificity change (R) ([4]; ratio of catalytic efficiencies analog vs natural nucleotide, mutant vs wild type)	k2/Ks wt (catalytic efficiency of phosphotransfer) [5] [M⁻¹ s⁻¹]
Cc1cn([C@H]2C[C@H](N=[N+]=[N-])[C@@H](COP(=O)(O)OP(=O)(O)OP(=O)(O)O)O2)c(=O)[nH]c1=O [AZT-TP]	4	1100	75	15	930	(8)	–
Nc1nc2c(ncn2[C@H]2CC[C@@H](COP(=O)(O)OP(=O)(O)OP(=O)(O)O)O2)c(=O)[nH]1 [ddGTP, dideoxy-GTP]	1.5	3500	190	2	–	–	2300
